Results from US20190031717A1, “MULTI-FUNCTIONAL FUSION POLYPEPTIDE, PREPARATION METHOD THEREOF, AND APPLICATION OF SAME” (NANJING ANJI BIOLOGICAL TECHNOLOGY CO., LTD, priority 2016, published 2019).

Tests used:
[1] = tested on: Prostate cancer; experiment: MTT assay, tumor cells; type: cell-based, human; set-up: concentration or dose not given beside the values; conditions: 48 hours, mean ± SD
Method: (§1) A variety of human tumor cells were cultured in a 37° C., 5% (volume fraction) CO2 incubator to a density of 90% or more, collected by trypsinization, resuspended in a culture medium and counted under a microscope, and the cells were harvested. The concentration was adjusted to 2.0×10^4 cells/mL, the cell suspension was inoculated into a 96-well plate at 100 μL per well and cultured overnight at 37° C. in a 5% (volume fraction) CO2 incubator. After the cells were completely adhered, the polypeptides of the present invention were added as drug-administered groups, and a culture solution containing no drug was used as a blank control group, and the culture solution was diluted to each predetermined concentration. Each dilution was separately added to a 96-well plate at 100 μL per well and incubated for 48 hours at 37° C. in a 5% (volume fraction) CO2 incubator. 20 μL of 5 mg/mL MTT was added to each well of a 96-well plate and incubation was continued for 4 h. The medium was aspirated and dissolved in 100 μL of DMSO per well. The absorbance was measured with a microplate reader at a detection wavelength of 570 nm and a reference wavelength of 630 nm, and the growth inhibition rate was calculated as follows: tumor growth inhibition rate (%)=(1−absorbance value of the administered group/unadministered group absorbance value)×100%, and the experiment was repeated 3 times independently. The results obtained from the test were expressed as mean±standard deviation, and the tumor growth inhibition rate of the unadministered group was 0. The results in Table 7 indicate that the polypeptides of the present invention have a significant inhibitory effect on the growth of various tumors (FIG. 6).

[2] = tested on: Cervical cancer; experiment: MTT assay, tumor cells; type: cell-based, human; set-up: concentration or dose not given beside the values; conditions: 48 hours, mean ± SD
Method: as §1

[3] = tested on: Uterine cancer; experiment: MTT assay, tumor cells; type: cell-based, human; set-up: concentration or dose not given beside the values; conditions: 48 hours, mean ± SD
Method: as §1

[4] = tested on: Pancreatic cancer; experiment: MTT assay, tumor cells; type: cell-based, human; set-up: concentration or dose not given beside the values; conditions: 48 hours, mean ± SD
Method: as §1

[5] = tested on: Hemangioma; experiment: MTT assay, tumor cells; type: cell-based, human; set-up: concentration or dose not given beside the values; conditions: 48 hours, mean ± SD
Method: as §1

[6] = tested on: Esophageal cancer; experiment: MTT assay, tumor cells; type: cell-based, human; set-up: concentration or dose not given beside the values; conditions: 48 hours, mean ± SD
Method: as §1

[7] = tested on: Colorectal cancer; experiment: MTT assay, tumor cells; type: cell-based, human; set-up: concentration or dose not given beside the values; conditions: 48 hours, mean ± SD
Method: as §1

[8] = tested on: Brain tumor; experiment: MTT assay, tumor cells; type: cell-based, human; set-up: concentration or dose not given beside the values; conditions: 48 hours, mean ± SD
Method: as §1

[9] = tested on: Kidney cancer; experiment: MTT assay, tumor cells; type: cell-based, human; set-up: concentration or dose not given beside the values; conditions: 48 hours, mean ± SD
Method: as §1

[10] = tested on: Breast cancer; experiment: MTT assay, tumor cells; type: cell-based, human; set-up: concentration or dose not given beside the values; conditions: 48 hours, mean ± SD
Method: as §1

[11] = tested on: Liver cancer; experiment: MTT assay, tumor cells; type: cell-based, human; set-up: concentration or dose not given beside the values; conditions: 48 hours, mean ± SD
Method: as §1

[12] = tested on: Head and neck cancer; experiment: MTT assay, tumor cells; type: cell-based, human; set-up: concentration or dose not given beside the values; conditions: 48 hours, mean ± SD
Method: as §1

[13] = tested on: Gastric cancer; experiment: MTT assay, tumor cells; type: cell-based, human; set-up: concentration or dose not given beside the values; conditions: 48 hours, mean ± SD
Method: as §1

[14] = tested on: Bladder Cancer; experiment: MTT assay, tumor cells; type: cell-based, human; set-up: concentration or dose not given beside the values; conditions: 48 hours, mean ± SD
Method: as §1

[15] = tested on: Ovarian cancer; experiment: MTT assay, tumor cells; type: cell-based, human; set-up: concentration or dose not given beside the values; conditions: 48 hours, mean ± SD
Method: as §1

[16] = tested on: Melanoma; experiment: MTT assay, tumor cells; type: cell-based, human; set-up: concentration or dose not given beside the values; conditions: 48 hours, mean ± SD
Method: as §1

[17] = tested on: Thyroid cancer; experiment: MTT assay, tumor cells; type: cell-based, human; set-up: concentration or dose not given beside the values; conditions: 48 hours, mean ± SD
Method: as §1

[18] = tested on: sarcoma; experiment: MTT assay, tumor cells; type: cell-based, human; set-up: concentration or dose not given beside the values; conditions: 48 hours, mean ± SD
Method: as §1

[19] = tested on: Large cell lung cancer; experiment: MTT assay, lung cancer tumor cells; type: cell-based, human; set-up: concentration or dose not given beside the values; conditions: 48 h, mean ± SD
Method: (§2) The inhibition of the growth of human lung cancer tumor cells by the polypeptide of the present invention was examined by MTT assay. The lung cancer tumor cells were cultured in a 37° C., 5% (volume fraction) CO2 incubator to a density of 90% or more, and collected by trypsinization. The cells were resuspended in the culture medium and counted under a microscope to adjust the cell concentration to 2.0×10^4 cells/mL, the cell suspension was inoculated into a 96-well plate at 100 μL per well, and cultured overnight at 37° C. in a 5% (volume fraction) CO2 incubator. After the cells were completely adhered, the polypeptide of the present invention was added as a drug-administered group, and a culture solution containing no drug was used as a blank control group, and the culture solution was diluted to each predetermined concentration. Each dilution was separately added to a 96-well plate at 100 μL per well and incubated for 48 h at 37° C. in a 5% (volume fraction) CO2 incubator. 20 μL of 5 mg/mL MTT was added to each well of a 96-well plate, and incubation was continued for 4 hours. The medium was aspirated, and the cells were dissolved in 100 μL of DMSO per well. The absorbance was measured by a microplate reader at a detection wavelength of 570 nm and a reference wavelength of 630 nm, and the growth inhibition rate was calculated as follows: tumor growth inhibition rate (%)=(1−administered group absorbance value/unadministered group absorbance value)×100%, and the experiment was repeated 3 times independently. The results obtained by the test were expressed as mean±standard deviation. The results in Table 6 indicate that the polypeptides of the present invention have a good inhibitory effect on proliferation of a variety of human lung cancer tumors (FIG. 5).

[20] = tested on: Non-small cell lung cancer; experiment: MTT assay, lung cancer tumor cells; type: cell-based, human; set-up: concentration or dose not given beside the values; conditions: 48 h, mean ± SD
Method: as §2

[21] = tested on: Squamous cell carcinoma; experiment: MTT assay, lung cancer tumor cells; type: cell-based, human; set-up: concentration or dose not given beside the values; conditions: 48 h, mean ± SD
Method: as §2

[22] = tested on: Small Cell Lung Cancer; experiment: MTT assay, lung cancer tumor cells; type: cell-based, human; set-up: concentration or dose not given beside the values; conditions: 48 h, mean ± SD
Method: as §2

[23] = tested on: Adenosquamous carcinoma; experiment: MTT assay, lung cancer tumor cells; type: cell-based, human; set-up: concentration or dose not given beside the values; conditions: 48 h, mean ± SD
Method: as §2

[24] = tested on: Adenocarcinoma; experiment: MTT assay, lung cancer tumor cells; type: cell-based, human; set-up: concentration or dose not given beside the values; conditions: 48 h, mean ± SD
Method: as §2

[25] = tested on: Mycoplasma pneumoniae; experiment: Mouse pneumonia model, mycoplasma; type: in vivo, BALB/C mice; set-up: concentration or dose not given beside the values; conditions: mean ± SD
Method: (§3) The mouse pneumonia model was successfully established by the nose-drop method. To build the mouse pneumonia model, BALB/C mice with a body mass of 16-22 g were selected and anesthetized pneumonia chain was prepared after anesthesia with ether on day 0, day 1, and day 2. Staphylococcal fluid, adenovirus concentrate, Mycoplasma pneumoniae, Chlamydia pneumoniae, protozoa, and pneumonia fungi were slowly dripped into the nasal cavity of the mice, so that they enter the tracheobronchial. During the operation process, care was exercised to prevent bacterial fluid from flowing into the esophagus, which leads to inactivation the bacterial fluid. After successful model establishment, the polypeptides of the present invention were administered, and the results were shown in Table 5. […] The results were expressed in average value±standard deviation.

[26] = tested on: adenovirus concentrate; experiment: Mouse pneumonia model, viral; type: in vivo, BALB/C mice; conditions: mean ± SD
Method: as §3

[27] = tested on: Chlamydia pneumoniae; experiment: Mouse pneumonia model, chlamydia; type: in vivo, BALB/C mice; set-up: concentration or dose not given beside the values; conditions: mean ± SD
Method: as §3

[28] = tested on: Staphylococcal fluid; experiment: Mouse pneumonia model, bacterial; type: in vivo, BALB/C mice; set-up: concentration or dose not given beside the values; conditions: mean ± SD
Method: as §3

[29] = tested on: protozoa; experiment: Mouse pneumonia model, protozoal; type: in vivo, BALB/C mice; set-up: concentration or dose not given beside the values; conditions: mean ± SD
Method: as §3

[30] = tested on: pneumonia fungi; experiment: Mouse pneumonia model, fungal; type: in vivo, BALB/C mice; set-up: concentration or dose not given beside the values; conditions: mean ± SD
Method: as §3

[31] = tested on: Pneumonia caused by lung infection; experiment: Mouse pneumonia model, pneumonia caused by lung infection; type: in vivo, BALB/C mice; set-up: concentration or dose not given beside the values; conditions: mean ± SD
Method: as §3

CC(=O)O[C@@]12CO[C@@H]1C[C@H](O)[C@@]1(C)C(=O)[C@H](O)C3=C(C)[C@@H](OC(=O)[C@H](O)[C@@H](NC(=O)OC(C)(C)C)c4ccccc4)C[C@@](O)([C@@H](OC(=O)c4ccccc4)[C@H]21)C3(C)C [Docetaxel, reference compound] was tested, and the “tumor growth inhibition rate, MTT Assay” value [1] was 54.25 ± 19.68%, the “tumor growth inhibition rate, MTT Assay” value [2] was 50.54 ± 21.82% and the “tumor growth inhibition rate, MTT Assay” value [3] was 52.33 ± 19.09%. For the same compound, the “tumor growth inhibition rate, MTT Assay” value [4] was 49.42 ± 18.21%, the “tumor growth inhibition rate, MTT Assay” value [5] was 68.47 ± 20.71% and the “tumor growth inhibition rate, MTT Assay” value [6] was 44.16 ± 13.36%. For the same compound, the “tumor growth inhibition rate, MTT Assay” value [7] was 57.20 ± 17.30%, the “tumor growth inhibition rate, MTT Assay” value [8] was 45.90 ± 13.88% and the “tumor growth inhibition rate, MTT Assay” value [9] was 40.23 ± 15.44%. For the same compound, the “tumor growth inhibition rate, MTT Assay” value [10] was 61.44 ± 18.58%, the “tumor growth inhibition rate, MTT Assay” value [11] was 48.95 ± 14.80% and the “tumor growth inhibition rate, MTT Assay” value [12] was 32.59 ± 9.86%. The “tumor growth inhibition rate, MTT Assay” value [13] was 43.57 ± 16.44%, the “tumor growth inhibition rate, MTT Assay” value [14] was 34.82 ± 10.53% and the “tumor growth inhibition rate, MTT Assay” value [15] was 60.97 ± 18.44%. The “tumor growth inhibition rate, MTT Assay” value [16] was 38.17 ± 11.54%, the “tumor growth inhibition rate, MTT Assay” value [17] was 42.03 ± 12.71% and the “tumor growth inhibition rate, MTT Assay” value [18] was 44.26 ± 13.39%. The “tumor growth inhibition rate, MTT Assay” value [19] was 52.69 ± 16.12%, the “tumor growth inhibition rate, MTT Assay” value [20] was 55.50 ± 19.83% and the “tumor growth inhibition rate, MTT Assay” value [21] was 39.78 ± 10.73%. The “tumor growth inhibition rate, MTT Assay” value [22] was 42.16 ± 14.54%, the “tumor growth inhibition rate, MTT Assay” value [23] was 35.87 ± 13.84% and the “tumor growth inhibition rate, MTT Assay” value [24] was 52.54 ± 15.12%.

Penicillin [reference compound] was tested, and the “Inhibitory Effects on Various Pulmonary Infections” value (“Inhibitory Effects” below) [25] was 23.91 ± 14.27%, the “Inhibitory Effects” value [26] was 35.02 ± 15.58% and the “Inhibitory Effects” value [27] was 28.10 ± 14.99%. The “Inhibitory Effects” value [28] was 26.52 ± 11.07%, the “Inhibitory Effects” value [29] was 37.00 ± 20.45% and the “Inhibitory Effects” value [30] was 35.13 ± 16.62%. For the same compound, the “Inhibitory Effects” value [31] was 31.03 ± 18.46%.
